How the values were obtained:
blackgrass = experiment: Test C pre-/postemergence test; type: in vivo, Alopecurus myosuroides; details: for Plant response rating, Blackgrass: 31 g ai/ha, scale 0 to 100 (0 no effect, 100 complete control)
Method in brief: (§1)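 Compounds in a non-phytotoxic solvent with surfactant applied preemergence to seeded pots and, at the same time, postemergence to plants 2–18 cm tall (1- to 4-leaf stage). Paddy tests: pots flooded to 3 cm, compound applied into the water, depth held throughout.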

giant foxtail [1] = experiment: Test C pre-/postemergence test; type: in vivo, Setaria faberii; details: for Plant response rating, Foxtail, Giant: 31 g ai/ha, scale 0 to 100 (0 no effect, 100 complete control)
Method in brief: as §1

velvetleaf = experiment: Test C pre-/postemergence test; type: in vivo, Abutilon theophrasti; details: for Plant response rating, Velvetleaf: 31 g ai/ha, scale 0 to 100 (0 no effect, 100 complete control)
Method in brief: as §1

wheat [2] = experiment: Test C pre-/postemergence test; type: in vivo, Triticum aestivum; details: for Plant response rating, Wheat: 31 g ai/ha, scale 0 to 100 (0 no effect, 100 complete control)
Method in brief: as §1

wild oat = experiment: Test C pre-/postemergence test; type: in vivo, Avena fatua; details: for Plant response rating, Oat, Wild: 31 g ai/ha, scale 0 to 100 (0 no effect, 100 complete control)
Method in brief: as §1

Surinam grass = experiment: Test C pre-/postemergence test; type: in vivo, Brachiaria decumbens; details: for Plant response rating, Surinam Grass: 31 g ai/ha, scale 0 to 100 (0 no effect, 100 complete control)
Method in brief: as §1

eastern black nightshade = experiment: Test C pre-/postemergence test; type: in vivo, Solanum ptycanthum
Method in brief: as §1

morningglory = experiment: Test A pre-/postemergence greenhouse test; type: in vivo, Ipomoea spp.; details: for Plant response rating, Morningglory: 0 to 100 scale where 0 is no effect and 100 is complete control; for Morningglory plant response rating: 0 to 100 scale
Method in brief: (§2)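 Greenhouse herbicide screen, pre- and postemergence in parallel. Soil: loam plus sand. Formulation: non-phytotoxic solvent mix with surfactant. Postemergence stage: one to two leaves, 2–10 cm height. Evaluation: visual injury, compared with untreated controls, about 10 days after treatment.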

kochia = experiment: Test C pre-/postemergence test; type: in vivo, Kochia scoparia; details: for Plant response rating, Kochia: 31 g ai/ha, scale 0 to 100 (0 no effect, 100 complete control)
Method in brief: as §1

downy brome = experiment: Test C pre-/postemergence test; type: in vivo, Bromus tectorum; details: for Plant response rating, Bromegrass, Downy: 31 g ai/ha, scale 0 to 100 (0 no effect, 100 complete control)
Method in brief: as §1

catchweed bedstraw = experiment: Test C pre-/postemergence test; type: in vivo, Galium aparine; details: for Plant response rating, Galium: 31 g ai/ha, scale 0 to 100 (0 no effect, 100 complete control)
Method in brief: as §1

woolly cupgrass = experiment: Test C pre-/postemergence test; type: in vivo, Eriochloa villosa; details: for Plant response rating, Cupgrass, Woolly: 31 g ai/ha, scale 0 to 100 (0 no effect, 100 complete control)
Method in brief: as §1

cocklebur = experiment: Test C pre-/postemergence test; type: in vivo, Xanthium strumarium; details: for Plant response rating, Cocklebur: 31 g ai/ha, scale 0 to 100 (0 no effect, 100 complete control)
Method in brief: as §1

redroot pigweed = experiment: Test A pre-/postemergence greenhouse test; type: in vivo, Amaranthus retroflexus; details: for Plant response rating, Pigweed: 0 to 100 scale where 0 is no effect and 100 is complete control; for Pigweed plant response rating: 0 to 100 scale
Method in brief: as §2

common ragweed = experiment: Test C pre-/postemergence test; type: in vivo, Ambrosia elation
Method in brief: as §1

[3] = system: common (oilseed) sunflower; experiment: Test C pre-/postemergence test; type: in vivo, Helianthus annuus; details: for Plant response rating, Sunflower: 31 g ai/ha, scale 0 to 100 (0 no effect, 100 complete control)
Method in brief: as §1

wheat [4] = experiment: Test A pre-/postemergence greenhouse test; type: in vivo, Triticum aestivum; details: for Plant response rating, Wheat: 0 to 100 scale where 0 is no effect and 100 is complete control; for Wheat plant response rating: 0 to 100 scale
Method in brief: as §2

giant foxtail [5] = experiment: Test A pre-/postemergence greenhouse test; type: in vivo, Setaria faberi; details: for Plant response rating, Foxtail, Giant: 0 to 100 scale where 0 is no effect and 100 is complete control; for Foxtail, Giant plant response rating: 0 to 100 scale
Method in brief: as §2

lambsquarters = experiment: Test C pre-/postemergence test; type: in vivo, Chenopodium album; details: for Plant response rating, Lambsquarters: 31 g ai/ha, scale 0 to 100 (0 no effect, 100 complete control)
Method in brief: as §1

[6] = 62 g ai/ha, Preemergence, scale 0 to 100
[7] = 125 g ai/ha, preemergence, scale 0 (no effect) to 100 (complete control)
[8] = preemergence, 250 g ai/ha, scale 0 (no effect) to 100 (complete control)
[9] = Postemergence, 500 g ai/ha, 0 is no effect, 100 is complete control
[10] = Preemergence, 125 g ai/ha, 0 no effect, 100 complete control
[11] = Preemergence, 31 g ai/ha, scale 0 to 100 (0 no effect, 100 complete control)

Structure (SMILES): CCc1cc[n+]([O-])c(S(=O)(=O)Cc2c(C(F)(F)F)nn(C)c2OCC(F)(F)F)c1 [Compound 60]
- Blackgrass plant response rating (blackgrass; [6]): 90
- Blackgrass plant response rating (blackgrass; [7]): 100
- Plant response rating, Blackgrass (blackgrass; Preemergence): 85
- Blackgrass plant response rating (blackgrass; [8]): 100
- Foxtail, Giant plant response rating (giant foxtail [1]; [6]): 100
- Foxtail, Giant plant response rating (giant foxtail [1]; [7]): 100
- Plant response rating, Foxtail, Giant (giant foxtail [1]; Preemergence): 100
- Foxtail, Giant plant response rating (giant foxtail [1]; [8]): 100
- Velvetleaf plant response rating (velvetleaf; [6]): 40
- Velvetleaf plant response rating (velvetleaf; [7]): 100
- Plant response rating, Velvetleaf (velvetleaf; Preemergence): 0
- Velvetleaf plant response rating (velvetleaf; [8]): 100
- Wheat plant response rating (wheat [2]; [6]): 15
- Wheat plant response rating (wheat [2]; [7]): 30
- Plant response rating, Wheat (wheat [2]; Preemergence): 0
- Wheat plant response rating (wheat [2]; [8]): 100
- Oat, Wild plant response rating (wild oat; [6]): 85
- Oat, Wild plant response rating (wild oat; [7]): 90
- Plant response rating, Oat, Wild (wild oat; Preemergence): 40
- Oat, Wild plant response rating (wild oat; [8]): 98
- Surinam Grass plant response rating (Surinam grass; [6]): 100
- Surinam Grass plant response rating (Surinam grass; [7]): 100
- Plant response rating, Surinam Grass (Surinam grass; Preemergence): 95
- Surinam Grass plant response rating (Surinam grass; [8]): 100
- Nightshade plant response rating (eastern black nightshade; [6]): 80
- Nightshade plant response rating (eastern black nightshade; [7]): 100
- Nightshade plant response rating (eastern black nightshade; [8]): 100
- Plant response rating, Morningglory (morningglory; Postemergence, 125 g ai/ha): 50
- Morningglory plant response rating (morningglory; [9]): 60
- Morningglory plant response rating (morningglory; [10]): 70
- Plant response rating, Morningglory (morningglory; Preemergence, 500 g ai/ha): 100
- Kochia plant response rating (kochia; [6]): 100
- Kochia plant response rating (kochia; [7]): 100
- Plant response rating, Kochia (kochia; Preemergence): 80
- Kochia plant response rating (kochia; [8]): 100
- Bromegrass, Downy plant response rating (downy brome; [6]): 55
- Bromegrass, Downy plant response rating (downy brome; [7]): 55
- Plant response rating, Bromegrass, Downy (downy brome; Preemergence): 0
- Bromegrass, Downy plant response rating (downy brome; [8]): 90
- Galium plant response rating (catchweed bedstraw; [6]): 100
- Galium plant response rating (catchweed bedstraw; [7]): 100
- Plant response rating, Galium (catchweed bedstraw; Preemergence): 0
- Galium plant response rating (catchweed bedstraw; [8]): 100
- Cupgrass, Woolly plant response rating (woolly cupgrass; [6]): 100
- Cupgrass, Woolly plant response rating (woolly cupgrass; [7]): 100
- Plant response rating, Cupgrass, Woolly (woolly cupgrass; Preemergence): 100
- Cupgrass, Woolly plant response rating (woolly cupgrass; [8]): 100
- Cocklebur plant response rating (cocklebur; [6]): 0
- Cocklebur plant response rating (cocklebur; [7]): 0
- Plant response rating, Cocklebur (cocklebur; Preemergence): 0
- Cocklebur plant response rating (cocklebur; [8]): 0
- Plant response rating, Pigweed (redroot pigweed; Postemergence, 125 g ai/ha): 60
- Pigweed plant response rating (redroot pigweed; [9]): 80
- Pigweed plant response rating (redroot pigweed; [10]): 100
- Plant response rating, Pigweed (redroot pigweed; Preemergence, 500 g ai/ha): 100
- Ragweed plant response rating (common ragweed; [6]): 60
- Plant response rating, Ragweed (common ragweed; [11]): 30
- Ragweed plant response rating (common ragweed; [8]): 90
- Sunflower plant response rating [3, 6]: 55
- Sunflower plant response rating [3, 7]: 70
- Plant response rating, Sunflower ([3]; Preemergence): 40
- Sunflower plant response rating [3, 8]: 80
- Plant response rating, Wheat (wheat [4]; Postemergence, 125 g ai/ha): 50
- Wheat plant response rating (wheat [4]; [9]): 60
- Wheat plant response rating (wheat [4]; [10]): 50
- Plant response rating, Wheat (wheat [4]; Preemergence, 500 g ai/ha): 70
- Plant response rating, Foxtail, Giant (giant foxtail [5]; Postemergence, 125 g ai/ha): 60
- Foxtail, Giant plant response rating (giant foxtail [5]; [9]): 90
- Foxtail, Giant plant response rating (giant foxtail [5]; [10]): 100
- Plant response rating, Foxtail, Giant (giant foxtail [5]; Preemergence, 500 g ai/ha): 100
- Lambsquarters plant response rating (lambsquarters; [6]): 100
- Lambsquarters plant response rating (lambsquarters; [7]): 100
- Plant response rating, Lambsquarters (lambsquarters; Preemergence): 100
- Lambsquarters plant response rating (lambsquarters; [8]): 100

Structure (SMILES): C#CCOc1c(C[S+]([O-])c2cccc[n+]2[O-])c(C(F)(F)F)nn1C (centres unmarked) [Compound 76]
- Blackgrass plant response rating (blackgrass; [6]): 100
- Blackgrass plant response rating (blackgrass; [7]): 100
- Plant response rating, Blackgrass (blackgrass; Preemergence): 0
- Blackgrass plant response rating (blackgrass; [8]): 100
- Foxtail, Giant plant response rating (giant foxtail [1]; [6]): 90
- Foxtail, Giant plant response rating (giant foxtail [1]; [7]): 100
- Plant response rating, Foxtail, Giant (giant foxtail [1]; Preemergence): 75
- Foxtail, Giant plant response rating (giant foxtail [1]; [8]): 100
- Velvetleaf plant response rating (velvetleaf; [6]): 100
- Velvetleaf plant response rating (velvetleaf; [7]): 100
- Plant response rating, Velvetleaf (velvetleaf; Preemergence): 0
- Velvetleaf plant response rating (velvetleaf; [8]): 100
- Wheat plant response rating (wheat [2]; [6]): 60
- Wheat plant response rating (wheat [2]; [7]): 98
- Plant response rating, Wheat (wheat [2]; Preemergence): 0
- Wheat plant response rating (wheat [2]; [8]): 100
- Oat, Wild plant response rating (wild oat; [6]): 50
- Oat, Wild plant response rating (wild oat; [7]): 60
- Plant response rating, Oat, Wild (wild oat; Preemergence): 0
- Oat, Wild plant response rating (wild oat; [8]): 95
- Surinam Grass plant response rating (Surinam grass; [6]): 85
- Surinam Grass plant response rating (Surinam grass; [7]): 85
- Plant response rating, Surinam Grass (Surinam grass; Preemergence): 0
- Surinam Grass plant response rating (Surinam grass; [8]): 100
- Nightshade plant response rating (eastern black nightshade; [6]): 85
- Nightshade plant response rating (eastern black nightshade; [7]): 90
- Plant response rating, Nightshade (eastern black nightshade; [11]): 85
- Nightshade plant response rating (eastern black nightshade; [8]): 100
- Plant response rating, Morningglory (morningglory; Postemergence, 125 g ai/ha): 70
- Morningglory plant response rating (morningglory; [9]): 90
- Morningglory plant response rating (morningglory; [10]): 50
- Plant response rating, Morningglory (morningglory; Preemergence, 500 g ai/ha): 90
- Kochia plant response rating (kochia; [6]): 100
- Kochia plant response rating (kochia; [7]): 100
- Plant response rating, Kochia (kochia; Preemergence): 70
- Kochia plant response rating (kochia; [8]): 100
- Bromegrass, Downy plant response rating (downy brome; [6]): 45
- Bromegrass, Downy plant response rating (downy brome; [7]): 60
- Plant response rating, Bromegrass, Downy (downy brome; Preemergence): 0
- Bromegrass, Downy plant response rating (downy brome; [8]): 85
- Galium plant response rating (catchweed bedstraw; [6]): 100
- Galium plant response rating (catchweed bedstraw; [7]): 100
- Plant response rating, Galium (catchweed bedstraw; Preemergence): 100
- Galium plant response rating (catchweed bedstraw; [8]): 100
- Cupgrass, Woolly plant response rating (woolly cupgrass; [6]): 70
- Cupgrass, Woolly plant response rating (woolly cupgrass; [7]): 95
- Plant response rating, Cupgrass, Woolly (woolly cupgrass; Preemergence): 0
- Cupgrass, Woolly plant response rating (woolly cupgrass; [8]): 100
- Cocklebur plant response rating (cocklebur; [6]): 0
- Cocklebur plant response rating (cocklebur; [7]): 0
- Plant response rating, Cocklebur (cocklebur; Preemergence): 0
- Cocklebur plant response rating (cocklebur; [8]): 10
- Plant response rating, Pigweed (redroot pigweed; Postemergence, 125 g ai/ha): 50
- Pigweed plant response rating (redroot pigweed; [9]): 80
- Pigweed plant response rating (redroot pigweed; [10]): 70
- Plant response rating, Pigweed (redroot pigweed; Preemergence, 500 g ai/ha): 100
- Ragweed plant response rating (common ragweed; [6]): 20
- Ragweed plant response rating (common ragweed; [7]): 100
- Ragweed plant response rating (common ragweed; [8]): 100
- Sunflower plant response rating [3, 6]: 35
- Sunflower plant response rating [3, 7]: 50
- Plant response rating, Sunflower ([3]; Preemergence): 0
- Sunflower plant response rating [3, 8]: 70
- Plant response rating, Wheat (wheat [4]; Postemergence, 125 g ai/ha): 20
- Wheat plant response rating (wheat [4]; [9]): 60
- Wheat plant response rating (wheat [4]; [10]): 20
- Plant response rating, Wheat (wheat [4]; Preemergence, 500 g ai/ha): 100
- Plant response rating, Foxtail, Giant (giant foxtail [5]; Postemergence, 125 g ai/ha): 80
- Foxtail, Giant plant response rating (giant foxtail [5]; [9]): 90
- Foxtail, Giant plant response rating (giant foxtail [5]; [10]): 90
- Plant response rating, Foxtail, Giant (giant foxtail [5]; Preemergence, 500 g ai/ha): 100
- Lambsquarters plant response rating (lambsquarters; [6]): 100
- Lambsquarters plant response rating (lambsquarters; [7]): 100
- Plant response rating, Lambsquarters (lambsquarters; Preemergence): 85
- Lambsquarters plant response rating (lambsquarters; [8]): 100

Source: patent publication US20100298141A1, “SUBSTITUTED PYRIDINE N-OXIDE HERBICIDES” (E. I. DU PONT DE NEMOURS AND COMPANY, priority 2007, published 2010)
